The target in the assay is T1, GSK3β (Homo sapiens, UniProt P49841).
T1 construct: purchased Upstate 14-306
Briefly: GSK3β biochemical in vitro assay (coupled pyruvate kinase/lactate dehydrogenase, NADH fluorescence). As to conditions: 5 nM GSK3β, 50 μM ATP, 40 μM GSM substrate, 30° C., 2 hours. How it is done: The inhibitory activity of active substances is determined in a biochemical assay. The ingredients required for this purpose are mixed in a black 384-well microtitre plate with transparent base (from Greiner, catalogue number 781092). The requirements in this connection for each well of the 384-well microtitre plate are 5 nM GSK3β (from Upstate, catalogue number 14-306), 40 μM GSK3β substrate GSM (sequence H-RRRPASVPPSPSLSRHS-(pS)-HQRR, from Upstate, catalogue number 2-533), 30 μM nicotinamide adenine dinucleotide NADH (Roche Diagnostics, catalogue number 10107735), 50 μM adenosine triphosphate ATP (from Sigma, catalogue number A7966), 2 mM phosphoenolpyruvate (from Roche, catalogue number 128112), and also about 1 U/ml of pyruvate kinase and about 1 U/ml of lactate dehydrogenase, which are present together in a stock formulation (from Roche, catalogue number 10737291001, suspension with about 450 U/ml of pyruvate kinase activity, about 450 U/ml of lactate dehydrogenase activity in […] ammonium sulphate solution pH 6), where 1 unit pyruvate kinase converts, at pH 7.6 and 37° C., 1 μmol of phosphoenolpyruvate into pyruvate per minute, and where 1 unit of lactate dehydrogenase reduces, at pH 7.5 and 37° C., 1 μmol of pyruvate to lactate per minute. The required reaction buffer in which the biochemical reaction takes place consists of 50 mM Trizma hydrochloride Tris-HCl pH: 7.5 (from Sigma, catalogue number T3253), 5 mM magnesium chloride MgCl2 (from Sigma, catalogue number M8266), 0.2 mM DL-dithiothreitol DTT (from Sigma, catalogue number D9779), 2 mM ethylenediaminetetraacetic acid EDTA (from Sigma, catalogue number E6758), 0.01% Triton X-100 (from Sigma, catalogue number T8787) and 0.05% bovine serum albumin BSA (from Sigma, catalogue number B4287).
Active substances are dissolved in dimethyl sulphoxide DMSO (from Sigma, catalogue number D8418) in a concentration of 10 mM. Active substances are added in serial concentrations of 10 μM, 1 μM, 0.1 μM, 0.01 μM, 0.001 μM, 0.0001 μM, 0.00001 μM, 0.000001 μM to the mixtures of the biochemical reaction. As control, dimethyl sulphoxide is added instead of substance in a final concentration of 0.1%.
The reaction is incubated at 30° C. for 2 hours and then the resulting fluorescence is measured in a Tecan Safire-XFLUOR4 instrument, version V4.50 (serial number 12901300283) with the specifications: measurement mode—fluorescence measured from below, excitation wavelength 340 nm, emission wavelength 465 nm, slit width excitation 5 nm, slit width emission 5 nm, gain mode 120, delay 0 μs, number of light flashes per measurement 3, and an integration time of 40 μs.
The activity of the active substances is calculated in relation to these 0% and 100%.

T1 sequence (P49841 whole entry): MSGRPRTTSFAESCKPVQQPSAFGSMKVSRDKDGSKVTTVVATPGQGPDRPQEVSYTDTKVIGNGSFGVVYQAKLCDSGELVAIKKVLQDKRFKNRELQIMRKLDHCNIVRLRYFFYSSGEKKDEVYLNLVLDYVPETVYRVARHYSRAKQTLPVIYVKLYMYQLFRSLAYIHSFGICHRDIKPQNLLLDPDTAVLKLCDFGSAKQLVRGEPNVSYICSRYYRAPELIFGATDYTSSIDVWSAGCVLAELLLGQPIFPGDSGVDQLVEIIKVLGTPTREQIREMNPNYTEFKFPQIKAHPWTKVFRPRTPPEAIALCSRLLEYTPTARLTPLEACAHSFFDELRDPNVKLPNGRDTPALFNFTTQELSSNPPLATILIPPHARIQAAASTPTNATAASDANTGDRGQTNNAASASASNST

In general, IC50 refers to the concentration at which inhibition is half-maximal. `Nc1nc(NCCNc2nc(-c3ccc(Cl)cc3Cl)cn3ncnc23)ccc1C(=O)C(F)(F)F` [Example 6, 1-{2-Amino-6-[(2-{[6-(2,4-dichlorophenyl)[1,2,4]triazolo[1,5-a]pyrazin-8-yl]amino}ethyl)amino]-pyridin-3-yl}-2,2,2-trifluoroethanone] showed an IC50 of 13 nM.

Compound `N#Cc1sc(NCCNc2nc(-c3ccc(Cl)cc3Cl)cn3ncnc23)nc1N` [Example 15, 4-Amino-2-[(2-{[6-(2,4-dichlorophenyl)[1,2,4]triazolo[1,5-a]pyrazin-8-yl]amino}ethyl)amino]-1,3-thiazole-5-carbonitrile] had an IC50 of 3.2 nM.

In the case of `CCC(=O)c1ccc(NC2CCCN(c3nc(-c4ccc(Cl)cc4Cl)nn4cnnc34)C2)nc1N` (stereo not shown) [Example 11, 1-[2-Amino-6-({1-[6-(2,4-dichlorophenyl) [1,2,4]triazolo[3,4-f][1,2,4]triazin-8-yl]piperidin-3-yl}-amino)pyridin-3-yl]propan-1-one], 4.4 nM corresponded to half-maximal inhibition (IC50).

As for `Nc1nc(NCCNc2nc(-c3ccc(Cl)cc3Cl)nn3cnnc23)ccc1C(=O)C(F)(F)F` [Example 8, 1-{2-Amino-6-[(2-{[6-(2,4-dichlorophenyl)[1,2,4]triazolo[3,4-f][1,2,4]triazin-8-yl]amino}ethyl)-amino]pyridin-3-yl}-2,2,2-trifluoroethanone], the IC50 came to 9.1 nM.

(Values after patent publication US20090258877A1, “TRIAZOLOTRIAZINES AND TRIAZOLOPYRAZINES AND THEIR USE” (BAYER HEALTHCARE AG, priority 2007, published 2009).)
